According to patent publication US9636324B2, “Use of 15-benzylidence-14-deoxy-11, 12 -dehyroandrographolide derivative in manufacture of medicaments for protecting liver and anti-hepatitis C virus” (Zhengzhou University, priority 2012, dated 2017):

Legend:
MDBK (NBL-1) cells = assay: MTT assay for cytotoxicity; format: cell-based, bovine
Description: The drug-containing medium is added and further incubated for 48 h. MTT is added (5 mg/mL) at 20 μL/well and cultured for 4 h, the supernatant is discarded and 150 μL DMSO is added, then the plate is shaken for 10 minutes and the absorbance is determined using a microplate reader using the wavelength 570 nm and a reference wavelength 450 nm. The cell survival rate is calculated after treatment of compounds: cell survival rate (%)=drug group A value/cell control group A value×100%, and the results are shown in FIG. 10. Cell proliferation inhibition rate (%)=100%−survival rate (%), half maximal (50%) toxic concentration (TC50) is calculated according to Reed-Muench method.

[1] = test system: mice with ConA induced liver damage; assay: ConA induced immunological liver damage model in mice; format: in vivo, Kunming mice; settings: for protective effect against liver damage induced by ConA (summary): mice, intragastric, 3 days
Description: Kunming mice of clean grade (male, weight 20±2 g, supplied by the Laboratory Animal Center, Henan Province) are randomly divided into groups with 6 mice in each group. Bifendate (Xinchang Pharmaceutical Factory of Zhejiang Pharmaceutical Co., Ltd, 200 mg/kg) is used as positive control, andrographolide (AD) is provided by Furen Pharmaceutical Group Co., Ltd, and the test compounds are synthesized by the inventors with purities higher than 99.0%. Normal control group and model group are intragastrically given 0.5% sodium carboxymethylcellulose (CMC-Na), and test groups are given 0.5% CMC-Na suspensions with AD (0.88 mmol/kg), and low dosage (0.66 mmol/kg) and high dosage (0.88 mmol/kg) of compound A, B and C, respectively. The drugs are given for 3 days. One hour after the last administration, all mice except those in the normal control group are injected with a single dose of ConA (20 mg/kg) through the caudal vein. After 8 h, the eyeball is enucleated to collect blood, which is centrifuged at 3000 rpm for 15 min to separate serum. ALT and AST are tested according to the kit specification, respectively (Nanjing Jiancheng Bioengineering Institute). The left lobe of liver is taken to prepare 10% homogenate using physiological saline, MDA is determined according to the kit specification (Nanjing Jiancheng Bioengineering Institute). To 50 μL liver homogenate is added 2 mL of 0.5 mol/L KOH-methanol solution and kept at 50° C. water bath to isomerize for 20 minutes, then absorbance (A value) is measured at 278 nm, using the A value per mL of homogenate to represent the PGE2 content. Experimental data are expressed as average±standard deviation (X±s), analyzed with SPSS 11.5 statistic software, with P<0.05 meaning significant difference.
Kunming mice of clean grade (male, weight 20±2 g) are randomly divided into normal group, model group, bifendate (Zhejiang Wanbang Pharmaceutical Co., Ltd) positive control group (200 mg/kg), AD group (0.88 mmol/kg), low dosage group (0.66 mmol/kg) and high dosage (0.88 mmol/kg) group of compound D. ALT, AST, and MDA assay kits are purchased from Nanjing Jiancheng Bioengineering Institute. Other agents, drugs and experimental methods are the same as in EXAMPLE 1.
In experimental investigation of both models, the following grouping method is used: Kunming mice of clean grade (male, weight 20±2 g) are randomly divided into normal group, model group, bifendate group (200 mg/kg), AD group (0.88 mmol/kg), low dosage group (0.66 mmol/kg) and high dosage group (0.88 mmol/kg) of compound E, with 8 mice in each group. Other agents, drugs and experimental methods are the same as in EXAMPLE 1 and in EXAMPLE 4, respectively.

[2] = test system: bovine viral diarrhea virus (BVDV-AV69); assay: CPE observation of effects on cytopathy caused by BVDV in MDBK cells; settings: for antiviral effect compared with AD / pharmaceutical effect against cytopathy caused by virus compared with ribavirin: BVDV in MDBK cells; for TI value (therapy index, TC50/IC50): MDBK cells, BVDV-AV69, TC50 from MTT, IC50 from CPE
Description: Pharmaceutical effects of drugs of the invention against cytopathy caused by inoculation of BVDV virus are investigated using MDBK (NBL-1) cells (purchased from Chinese Academy of Science's Shanghai Center for Type Culture Collection) and bovine viral diarrhea virus (BVDV-AV69) (purchased from China Institute of Veterinary Drugs Control). Ribavirin (R; Henan RunHong Pharmaceutical Co., Ltd; batch number: E0909604) is used as positive drug control. MDBK cells are prepared as a suspension (1×10^5/mL) in RPMI1640 culture medium which contains 10% in volume fetal bovine serum (Zhejiang Tianhang Biotechnology Co., Ltd; batch number: 100524), 100 μg/mL streptomycin (Shenzheng Huayao Nanfang Pharmaceutical Co., Ltd; batch number: N09081), 100 U/mL penicillin (North China Pharmaceutical Co., Ltd; batch number: E0909604), and are seeded in 96 well plates (Costar, US) at 200 μL/well, placed in an incubator (Binder, Germany) at 37° C. with 5% CO2 to culture the cell. In 24 h when cells grow into a single layer, virus solution of 100 TCID50 (TCID50=10^−2.5) is added and incubated for 1.5 h. Maintenance medium with the drug is added at 200 μL/well after 3×PBS washes.
After digestion of MDBK cells with trypsin, cells with a concentration of 1×10^5/mL are seeded into 96 well plates at 200 μL/well, placed in an incubator at 37° C. with 5% CO2 for 24 h. After growing into a single layer, cells are attacked using 100 TCID50 (TCID50=10^−2.5) virus and incubated for 1.5 h. The virus-containing maintenance medium is discarded, and cells are washed with PBS, followed by addition of drug-containing maintenance medium with different concentrations, and incubation in 5% CO2 at 37° C. Normal cell control, virus control, drug treatment and ribavirin treatment groups are set. The cytopathy developing status is recorded everyday by observing under an inverted microscope.

[3] = test system: mice with carbon tetrachloride induced liver damage; assay: Carbon tetrachloride induced chemical liver damage model in mice; format: in vivo, Kunming mice; settings: for protective effect against liver damage induced by carbon tetrachloride (summary): mice, intragastric, 3 days
Description: Kunming mice of clean grade (male, weight 20±2 g), after adaptively fed for 3 days, are randomly divided into normal group, model group, bifendate positive control group (200 mg/kg), AD group (0.88 mmol/kg), low dosage group (0.66 mmol/kg) and high dosage group (0.88 mmol/kg) of compound A, B, C and D, with 8 mice in each group. Positive group and each test group are intragastrically given with respective suspension prepared with 0.5% CMC-Na, and normal group and model group are given with 0.5% CMC-Na. The drugs are given for 3 days, and 1 h after the last administration, all mice except those in the normal group are intraperitoneally injected with a single dose of 0.3% carbon tetrachloride in peanut oil (0.1 mL/10 g). After 16 h, the eyeball of the mice in each group is enucleated to collect blood, which is centrifuged at 3000 rpm for 15 min to separate serum. ALT and AST activities are tested respectively (Nanjing Jiancheng Bioengineering Institute). The left lobe of liver is taken to prepare 10% homogenate using physiological saline, MDA (Nanjing Jiancheng Bioengineering Institute) and PGE2 contents are determined. Experimental data are expressed as average±standard deviation (X±s), analyzed with SPSS 11.5 statistic software, with P<0.05 meaning there is a significant difference. Other agents, drugs and experimental methods are the same as in EXAMPLE 1. In experimental investigation of both models, the following grouping method is used: Kunming mice of clean grade (male, weight 20±2 g) are randomly divided into normal group, model group, bifendate group (200 mg/kg), AD group (0.88 mmol/kg), low dosage group (0.66 mmol/kg) and high dosage group (0.88 mmol/kg) of compound E, with 8 mice in each group. Other agents, drugs and experimental methods are the same as in EXAMPLE 1 and in EXAMPLE 4, respectively.

[4] = high dosage 0.88 mmol/kg vs AD 0.88 mmol/kg, P<0.05
[5] = high dosage 0.88 mmol/kg, P<0.01
[6] = low dosage 0.66 mmol/kg vs AD 0.88 mmol/kg, P<0.05
[7] = low dosage 0.66 mmol/kg, P<0.05 (D), P<0.01 (E)
[8] = low dosage 0.66 mmol/kg, P<0.01
[9] = dosage groups not distinguished (0.66 and 0.88 mmol/kg), P<0.01
[10] = dosage groups not distinguished, P<0.01
[11] = high dosage 0.88 mmol/kg, P<0.05

For `C=C1CCC2C(C)(COC(=O)CCC(=O)O)C(OC(=O)CCC(=O)O)CCC2(C)C1C=CC1=CC(=Cc2ccc(Cl)cc2)OC1=O` (stereo not shown) [Compound E], the “cytotoxicity to MDBK cells” value (MDBK (NBL-1) cells; 0-7.5 μmol/L, 48 h) was “do not show obvious cytotoxcity”, the “cytotoxicity to MDBK cells” value (MDBK (NBL-1) cells; 30 μmol/L) was “shows no cytotoxcity” and the “ALT activity in serum compared with AD group” value [1, 4] was “notably lower than AD group”. The “AST activity in serum compared with AD group” value [1, 4] was “notably lower than AD group”, the “ALT activity in serum vs model group” value [1, 5] was “notably decrease” and the “AST activity in serum vs model group” value [1, 5] was “notably decrease”. The “ALT activity in serum compared with AD group” value [1, 6] was “notably lower than AD group”, the “AST activity in serum compared with AD group” value [1, 6] was “notably lower than AD group” and the “ALT activity in serum vs model group” value [1, 7] was “notably decrease”. The “AST activity in serum vs model group” value [1, 7] was “notably decrease”, the “protective effect against liver damage induced by ConA (summary)” value [1] was “significant protective effect” and the “antiviral effect compared with AD” value [2] was “better antiviral effect than AD”. The “pharmaceutical effect against cytopathy caused by virus compared with ribavirin” value [2] was “better than ribavirin”, the “TI value (therapy index, TC50/IC50)” value [2] was greater than 250 and the “magnitude of decrease in ALT activity compared to AD group” value (“magnitude of decrease in ALT activity” for short) [3, 4] was “notably lower”. The “magnitude of decrease in AST activity compared to AD group” value (“magnitude of decrease in AST activity” below) [3, 4] was “notably lower”, the “ALT activity in serum vs model group” value [3, 5] was “notably decrease” and the “AST activity in serum vs model group” value [3, 5] was “notably decrease”. For the same compound, the “ALT activity in serum vs model group” value [3, 8] was “notably decrease”, the “AST activity in serum vs model group” value [3, 8] was “notably decrease” and the “protective effect against liver damage induced by carbon tetrachloride (summary)” value [3] was “significant protective effect”.
`C=C1CCC2C(C)(COC(=O)c3cccnc3)C(OC(=O)c3cccnc3)CCC2(C)C1C=CC1=CC(=Cc2ccc(Cl)cc2)OC1=O` (stereo not shown) [Compound D, 15-p-chlorobenzylidene-3,19-nicotinate-14-deoxy-11,12-dehydroandrographolide] was tested, and the “cytotoxicity to MDBK cells” value (MDBK (NBL-1) cells; 0-7.5 μmol/L, 48 h) was “do not show obvious cytotoxcity”, the “PGE2 content in liver homogenate relative to normal group” value ([1]; high dosage 0.88 mmol/kg) was “close to that of normal group” and the “enzyme (ALT, AST) lowering effect compared to AD group” value [1, 4] was “obviously increased abilities to lower the enzymes”. The “ALT activity in serum vs model group” value [1, 5] was “notably decreased”, the “AST activity in serum vs model group” value [1, 5] was “notably decreased” and the “MDA content in liver homogenate vs model group” value [1, 5] was “significantly reduce”. The “PGE2 content in liver homogenate vs model group” value [1, 5] was “significantly reduce”, the “ability against liver lipid peroxidation compared with AD group” value ([1]; high dosage 0.88 mmol/kg, P<0.01 (B, C), P<0.05 (D)) was “obviously increased abilities” and the “PGE2 content in liver homogenate vs model group” value ([1]; low dosage 0.66 mmol/kg, P<0.05 (A), P<0.01 (D)) was “significantly reduce”. For the same compound, the “ALT activity in serum vs model group” value [1, 7] was “notably decreased”, the “AST activity in serum vs model group” value [1, 7] was “notably decreased” and the “MDA content in liver homogenate vs model group” value ([1]; low dosage (printed 0.66 mol/kg), P<0.01) was “significantly reduce”. The “protective effect against liver damage induced by ConA (summary)” value [1] was “significant protective effect”, the “antiviral effect compared with AD” value [2] was “better antiviral effect than AD” and the “pharmaceutical effect against cytopathy caused by virus compared with ribavirin” value [2] was “better than ribavirin”. The “TI value (therapy index, TC50/IC50)” value [2] was greater than 127.6, the “ALT activity in serum vs model group” value [3, 9] was “notably suppress the increase” and the “AST activity in serum vs model group” value [3, 9] was “notably suppress the increase”. For the same compound, the “MDA level in liver homogenate vs model group” value [3, 10] was “effectively reduce”, the “PGE2 level in liver homogenate vs model group” value [3, 10] was “effectively reduce” and the “magnitude of decrease in ALT activity” value [3, 4] was “significantly better”. For the same compound, the “magnitude of decrease in AST activity” value [3, 4] was “significantly better”, the “PGE2 content compared to AD group” value [3, 11] was “notably lower” and the “ability to reduce lipid peroxide level in liver homogenate compared to AD group” value [3, 11] was “stronger ability to reduce the lipid peroxide level”. The “magnitude of decrease in ALT activity” value [3, 6] was “significantly better”, the “magnitude of decrease in AST activity” value [3, 6] was “significantly better” and the “PGE2 content compared to AD group” value ([3]; low dosage 0.66 mmol/kg, P<0.05) was “notably lower”. For the same compound, the “protective effect against liver damage induced by carbon tetrachloride (summary)” value [3] was “protective effect”.
